This note sets out measurements from BindingDB's records for doi:10.1021/acsmedchemlett.8b00054 (Shandong University, 2018).

One may read the EC50 as the midpoint of the concentration-response curve.

The subject of test [1] is wild-type HIV1 3B reverse transcriptase (virus infecting MT4 cells). Nature of the test: Inhibition of wild-type HIV1 3B reverse transcriptase infected in human MT4 cells assessed as protection against virus-induced cytotoxicity by MTT assay. In general terms: Formazan colour is commonly taken as a measure of viable cells.
Test [2] relates to HIV1 RES056 reverse transcriptase K103N/Y181C double mutant (virus infecting MT4 cells). Nature of the test: Inhibition of HIV1 RES056 reverse transcriptase K103N/Y181C double mutant infected in human MT4 cells assessed as protection against virus-induced cytotoxicity by MTT assay.
Test [3] can be described thus: Inhibition of HIV1 reverse transcriptase K103N mutant infected in human MT4 cells assessed as protection against virus-induced cytotoxicity by MTT assay.
Test [4] in a line: Inhibition of HIV1 reverse transcriptase E138K mutant infected in human MT4 cells assessed as protection against virus-induced cytotoxicity by MTT assay.
A short description of test [5]: Inhibition of HIV1 reverse transcriptase Y188L mutant infected in human MT4 cells assessed as protection against virus-induced cytotoxicity by MTT assay.
The nature of test [6]: Inhibition of HIV1 reverse transcriptase F227L/V106A double mutant infected in human MT4 cells assessed as protection against virus-induced cytotoxicity by MTT assay.
The nature of test [7]: Inhibition of HIV1 reverse transcriptase L100I mutant infected in human MT4 cells assessed as protection against virus-induced cytotoxicity by MTT assay.
A short description of test [8]: Inhibition of HIV1 reverse transcriptase Y181C mutant infected in human MT4 cells assessed as protection against virus-induced cytotoxicity by MTT assay.

On to `Cc1cc(C#N)cc(C)c1Oc1nc(Nc2ccc(C#N)cc2)nc(N)c1Br`, for which the results for the EC50 in test [1] and in test [2] were 0.004 µM and 0.034 µM, respectively.
On to `Cc1cc(C#N)cc(C)c1Oc1nc(NC2CCN(Cc3cn(S(C)(=O)=O)cn3)CC2)nc2ccsc12`, for which the 50% effective concentration (EC50) worked out at 0.0045 µM in test [3], 0.013 µM in test [4], 0.0057 µM in test [1] and 2.7 µM in test [2].
On to `Cc1cc(C#N)cc(C)c1Oc1nc(NC2CCN(Cc3ccc(S(N)(=O)=O)cc3)CC2)nc2ccn(COCc3ccccc3)c12`, for which the EC50 turned out to be 0.0095 µM in test [1] and 0.484 µM in test [2].
On the same counts, the results for `Cc1cc(C#N)cc(C)c1Oc1nc(NC2CCN(Cc3ccc(S(C)(=O)=O)cc3)CC2)nc2ccn(COCc3ccccc3)c12` are 0.026 µM and 0.547 µM.
Take `Cc1cc(C#N)cc(C)c1Oc1nc(NC2CCN(Cc3ccc(C(N)=O)cc3)CC2)nc2ccn(COCc3ccccc3)c12`: the 50% effective concentration (EC50) in test [1] came to 0.036 µM; in test [2], 0.567 µM.
As to `Cc1cc(C#N)cc(C)c1Oc1nc(NC2CCN(Cc3ccco3)CC2)nc2ccsc12`, the EC50 in test [4] is 0.0088 µM; in test [1], 0.0036 µM; in test [2] it was more than 272 µM.
Regarding `Cc1cc(C#N)cc(C)c1Oc1nc(NC2CCN(Cc3cc(=O)[nH]c(=O)[nH]3)CC2)nc2ccsc12`, the EC50 in test [3] turned out to be 0.0061 µM; in test [4] it was 0.007 µM; in test [1], 0.0072 µM; in test [2], 8.97 µM.
In the case of `Cc1cc(C#N)cc(C)c1Oc1nc(NC2CCN(Cc3ccc(S(N)(=O)=O)cc3)CC2)nc2cc[nH]c12`, the EC50 in test [5] came out at 0.0072 µM; in test [6], 0.018 µM; in test [7] it was 0.0042 µM; in test [3], 0.001 µM; in test [4], 0.004 µM; in test [1] it was 0.0024 µM. Moreover, the results for the half-maximal effective concentration (EC50) in test [2] and in test [8] were 0.085 µM and 0.0048 µM, respectively.
Regarding `Cc1cc(C#N)cc(C)c1Oc1nc(NC2CCN(Cc3ccc(C(N)=O)cc3)CC2)nc2cc[nH]c12`, the figures for the EC50 in test [1] and in test [2] were 0.0057 µM and 0.113 µM, respectively.
On to `Cc1cc(C#N)cc(C)c1Oc1nc(NC2CCN(Cc3n[nH]c(=O)n3C)CC2)nc2ccsc12`, for which the concentration for a half-maximal effect (EC50) amounted to 0.014 µM in test [1] and 17.1 µM in test [2].
Consider `Cc1cc(C#N)cc(C)c1Oc1nc(NC2CCN(Cc3c[nH]cn3)CC2)nc2ccsc12`, for which the half-maximal effective concentration (EC50) in test [3] came out at 0.006 µM; in test [4], 0.012 µM; in test [1] it was 0.0055 µM; in test [2], 1.17 µM.
Regarding `Cc1cc(C#N)cc(C)c1Nc1nc(NC2CCN(Cc3ccc(S(N)(=O)=O)cc3)CC2)nc2ccsc12`, the EC50 in test [1] was 0.0014 µM; in test [2], 0.031 µM.
Regarding `Cc1cc(C#Cc2cccnc2)cc(C)c1Oc1nc(NC2CCN(Cc3ccc(S(N)(=O)=O)cc3)CC2)nc2ccsc12`, the values for the concentration for a half-maximal effect (EC50) in test [1] and in test [2] were 0.041 µM and 0.153 µM, respectively.
On the same counts, the results for `Cc1cc(C#Cc2ccccn2)cc(C)c1Oc1nc(NC2CCN(Cc3ccc(S(N)(=O)=O)cc3)CC2)nc2ccsc12` are 0.009 µM and 0.888 µM.
Regarding `Cc1cc(C#N)cc(C)c1Oc1nc(NC2CCN(Cc3ccc(C(N)=O)cc3)CC2)nc2ccn(S(=O)(=O)c3ccccc3)c12`, the concentration giving a half-maximal response (EC50) in test [1] worked out at 0.017 µM; in test [2], 2.29 µM.
`Cc1cc(C#N)cc(C)c1Oc1nc(NC2CCN(Cc3ccc(N4CCCC4)cc3)CC2)nc2ccsc12`: the half-maximal effective concentration (EC50) in test [1] was 0.033 µM; in test [2], more than 4.36 µM.
Turning to `Cc1cc(C#Cc2ccncc2)cc(C)c1Oc1nc(NC2CCN(Cc3ccc(S(N)(=O)=O)cc3)CC2)nc2ccsc12`, the EC50 was found to be 0.034 µM in test [1] and 0.223 µM in test [2].
As for `Cc1cc(C#N)cc(C)c1Oc1nc(NC2CCN(Cc3ccc(S(C)(=O)=O)cc3)CC2)nc2ccn(S(=O)(=O)c3ccccc3)c12`, the results for the concentration for a half-maximal effect (EC50) in test [1] and in test [2] were 0.031 µM and 0.187 µM, respectively.
In the case of `Cc1cc(C#N)cc(C)c1Oc1nc(NC2CCN(Cc3ccc(S(N)(=O)=O)cc3)CC2)nc2ccn(S(=O)(=O)c3ccccc3)c12`, the concentration for a half-maximal effect (EC50) in test [1] worked out at 0.0089 µM; in test [2], 0.11 µM.
Take `Cc1cc(/C=C/C#N)cc(C)c1Nc1nc(NC2CCN(Cc3ccc(S(N)(=O)=O)cc3)CC2)nc2ccsc12`: the concentration giving a half-maximal response (EC50) is 0.0012 µM in test [1] and 0.005 µM in test [2].
On to `Cc1cc(C#N)cc(C)c1Oc1nc(NC2CCN(Cc3ccc(S(C)(=O)=O)cc3)CC2)nc2cc[nH]c12`, for which the figures for the EC50 in test [1] and in test [2] were 0.0059 µM and 0.116 µM, respectively.
Consider `Cc1cn([C@H]2C[C@H](N=[N+]=[N-])[C@@H](CO)O2)c(=O)[nH]c1=O` [1-((2R,4S,5S)-4-Azido-5-hydroxymethyl-tetrahydro-furan-2-yl)-5-methyl-1H-pyrimidine-2,4-dione], for which the EC50 in test [1] was 0.007 µM; in test [2], 0.017 µM.
`Cc1ccnc2c1NC(=O)c1cccnc1N2C1CC1` [BI-RG-587]: the values for the EC50 in test [1] and in test [2] were 0.124 µM and more than 15 µM, respectively.
